Our source for the IC50 values is patent US9580437B2, “Triazolopyrimidine compounds and uses thereof” (Novartis AG, priority 2014, dated 2017).

Molecules are shown by their SMILES.

The target in one assay is EED (1-441)-His protein (Homo sapiens (Human), UniProt O75530). The assay can be described thus: EED-H3K27Me3 peptide competition binding assay by AlphaScreen. Particulars: read-out: (a) IC50 EED Alphascreen binding Qualified. An excerpt:
EED-H3K27Me3 peptide competition binding assay by AlphaScreen (α-screen)
On the technique in general: In Alpha technology, singlet oxygen from a donor bead excites a nearby acceptor bead.

In assay [1] the target is wild type PRC2 (wtPRC2) complex (Homo sapiens (Human), UniProt O75530). The assay can be described thus: EED LC-MS assay. In kind it is biochemical. Particulars: read-out: (b) IC50 EED LC-MS Qualified. How it is done: A 6 μL solution of 3 μM of the peptide substrate H3K27Me0 (histone H3[21-44]-biotin) in reaction buffer was added to initiate each reaction. […] ELISA (H3K27 Methylation) Assay

By IC50 is commonly meant the concentration at which inhibition is half-maximal.

Sequence of wild type PRC2 (wtPRC2) complex (O75530 whole entry): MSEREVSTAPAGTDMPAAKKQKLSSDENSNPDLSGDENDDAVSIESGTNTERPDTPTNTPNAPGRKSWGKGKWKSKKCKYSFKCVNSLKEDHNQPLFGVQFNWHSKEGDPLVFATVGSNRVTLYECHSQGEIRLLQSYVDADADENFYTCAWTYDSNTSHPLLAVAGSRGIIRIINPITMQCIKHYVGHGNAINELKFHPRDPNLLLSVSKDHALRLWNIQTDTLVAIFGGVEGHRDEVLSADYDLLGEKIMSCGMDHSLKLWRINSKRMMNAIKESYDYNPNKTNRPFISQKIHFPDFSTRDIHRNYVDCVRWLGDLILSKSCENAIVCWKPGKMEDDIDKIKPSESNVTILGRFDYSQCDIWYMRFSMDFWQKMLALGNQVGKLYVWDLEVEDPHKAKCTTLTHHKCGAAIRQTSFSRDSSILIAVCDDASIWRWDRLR
Sequence of wild type PRC2 (wtPRC2) complex (Q15910 whole entry partner): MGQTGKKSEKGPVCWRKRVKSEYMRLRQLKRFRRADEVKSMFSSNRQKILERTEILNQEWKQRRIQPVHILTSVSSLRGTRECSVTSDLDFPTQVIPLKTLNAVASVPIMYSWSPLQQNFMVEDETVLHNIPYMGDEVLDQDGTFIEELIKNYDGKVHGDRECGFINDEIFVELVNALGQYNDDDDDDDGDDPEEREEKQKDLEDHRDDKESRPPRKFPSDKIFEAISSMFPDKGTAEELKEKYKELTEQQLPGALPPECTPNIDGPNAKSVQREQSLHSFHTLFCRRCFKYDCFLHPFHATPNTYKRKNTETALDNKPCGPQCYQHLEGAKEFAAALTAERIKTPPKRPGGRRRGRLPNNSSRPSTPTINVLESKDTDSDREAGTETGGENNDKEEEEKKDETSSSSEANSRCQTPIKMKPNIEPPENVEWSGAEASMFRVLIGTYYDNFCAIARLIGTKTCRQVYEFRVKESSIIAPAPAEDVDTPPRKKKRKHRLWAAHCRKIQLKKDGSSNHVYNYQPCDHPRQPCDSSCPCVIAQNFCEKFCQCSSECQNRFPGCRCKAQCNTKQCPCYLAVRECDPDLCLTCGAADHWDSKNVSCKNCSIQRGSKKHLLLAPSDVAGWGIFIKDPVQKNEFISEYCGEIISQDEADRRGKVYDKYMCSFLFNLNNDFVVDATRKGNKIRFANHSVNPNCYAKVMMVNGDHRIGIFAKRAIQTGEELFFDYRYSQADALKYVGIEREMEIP
Sequence of wild type PRC2 (wtPRC2) complex (Q15022 whole entry partner): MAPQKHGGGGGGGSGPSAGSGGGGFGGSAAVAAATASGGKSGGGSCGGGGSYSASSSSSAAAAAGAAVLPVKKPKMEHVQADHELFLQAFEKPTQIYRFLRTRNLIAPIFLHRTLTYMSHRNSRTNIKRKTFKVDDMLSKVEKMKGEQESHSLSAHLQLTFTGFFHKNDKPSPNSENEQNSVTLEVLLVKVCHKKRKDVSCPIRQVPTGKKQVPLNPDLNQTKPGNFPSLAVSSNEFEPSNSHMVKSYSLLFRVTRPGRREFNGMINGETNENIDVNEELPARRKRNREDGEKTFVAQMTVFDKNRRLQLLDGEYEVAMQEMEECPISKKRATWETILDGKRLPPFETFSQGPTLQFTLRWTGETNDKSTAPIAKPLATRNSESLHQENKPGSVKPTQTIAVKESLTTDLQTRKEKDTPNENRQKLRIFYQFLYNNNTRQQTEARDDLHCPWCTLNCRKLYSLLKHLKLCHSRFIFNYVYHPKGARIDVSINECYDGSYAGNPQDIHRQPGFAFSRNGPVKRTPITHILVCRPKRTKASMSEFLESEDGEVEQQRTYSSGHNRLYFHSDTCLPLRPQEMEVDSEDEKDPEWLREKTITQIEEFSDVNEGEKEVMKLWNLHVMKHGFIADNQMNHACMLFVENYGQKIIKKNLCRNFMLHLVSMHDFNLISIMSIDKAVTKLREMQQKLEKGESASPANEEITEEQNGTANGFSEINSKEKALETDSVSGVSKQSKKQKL
Sequence of EED (1-441)-His protein (O75530 whole entry): as the sequence (O75530 whole entry) above

On to `Cc1nc(F)ccc1-c1cnc(NCc2c(F)ccc3c2CCO3)n2cnnc12` [Example 164, N-((5-fluoro-2,3-dihydrobenzofuran-4-yl)methyl)-8-(6-fluoro-2-methylpyridin-3-yl)-[1,2,4]triazolo[4,3-c]pyrimidin-5-amine], for which the IC50 at EED (1-441)-His protein turned out to be 4.2 nM; in assay [1], 13.9 nM.
In the same order, the values of `Cc1cc(F)ccc1-c1cnc(NCc2c(F)ccc3c2CCO3)n2cnnc12` [Example 165, N-((5-fluoro-2,3-dihydrobenzofuran-4-yl)methyl)-8-(4-fluoro-2-methylphenyl)-[1,2,4]triazolo[4,3-c]pyrimidin-5-amine] are 4.5 nM and 7.4 nM.
Regarding `Cc1ccc(-c2cnc(NCc3c(F)ccc4c3CCO4)n3cnnc23)c(C)n1` [Example 167, 8-(2,6-dimethylpyridin-3-yl)-N-((5-fluoro-2,3-dihydrobenzofuran-4-yl)methyl)-[1,2,4]triazolo[4,3-c]pyrimidin-5-amine], the IC50 at EED (1-441)-His protein stood at 3.3 nM; in assay [1] it was 5.2 nM.
Regarding `Fc1ccc2c(c1CNc1ncc(-c3cccnc3C(F)F)c3nncn13)CCO2` [Example 168, 8-(2-(difluoromethyl)pyridin-3-yl)-N-((5-fluoro-2,3-dihydrobenzofuran-4-yl)methyl)-[1,2,4]triazolo[4,3-c]pyrimidin-5-amine], the IC50 at EED (1-441)-His protein was 4.6 nM; in assay [1] it was 11.2 nM.
Turning to `Cn1nccc1-c1cnc(NCc2c(F)ccc3c2CCO3)n2cnnc12` [Example 169, N-((5-fluoro-2,3-dihydrobenzofuran-4-yl)methyl)-8-(1-methyl-1H-pyrazol-5-yl)-[1,2,4]triazolo[4,3-c]pyrimidin-5-amine], the values for the IC50 (at EED (1-441)-His protein; in assay [1]) were 4.5 nM and 6.6 nM, respectively.
In the same order, the values of `Cn1cc(-c2cnc(NCc3c(F)ccc4c3CCO4)n3cnnc23)c(C(F)(F)F)n1` [Example 170, N-((5-fluoro-2,3-dihydrobenzofuran-4-yl)methyl)-8-(1-methyl-3-(trifluoromethyl)-1H-pyrazol-4-yl)-[1,2,4]triazolo[4,3-c]pyrimidin-5-amine] are 10.7 nM and 12.1 nM.
In the same order, the values of `CC(=O)NCc1ccc(-c2cnc(NCc3c(F)ccc4c3CCO4)n3cnnc23)cn1` [Example 171, N-((5-(5-(((5-fluoro-2,3-dihydrobenzofuran-4-yl)methyl)amino)-[1,2,4]triazolo[4,3-c]pyrimidin-8-yl)pyridin-2-yl)methyl)acetamide] are 6 nM and 7.3 nM.
Consider `Cc1c(-c2cnc(NCc3c(F)ccc4c3CCO4)n3cnnc23)cnn1C` [Example 172, 8-(1,5-dimethyl-1H-pyrazol-4-yl)-N-((5-fluoro-2,3-dihydrobenzofuran-4-yl)methyl)-[1,2,4]triazolo[4,3-c]pyrimidin-5-amine], for which the IC50 at EED (1-441)-His protein came to 6.6 nM; in assay [1] it was 7.1 nM.
In the same order, the values of `Cc1cc(C2CC2)ncc1-c1cnc(NCc2c(F)ccc3c2CCO3)n2cnnc12` [Example 173, 8-(6-cyclopropyl-4-methylpyridin-3-yl)-N-((5-fluoro-2,3-dihydrobenzofuran-4-yl)methyl)-[1,2,4]triazolo[4,3-c]pyrimidin-5-amine] are 7.5 nM and 7.7 nM.
In the same order, the values of `COc1ncc(-c2cnc(NCc3c(F)ccc4c3CCO4)n3cnnc23)cn1` [Example 174, N-((5-fluoro-2,3-dihydrobenzofuran-4-yl)methyl)-8-(2-methoxypyrimidin-5-yl)-[1,2,4]triazolo[4,3-c]pyrimidin-5-amine] are 4.7 nM and 6.2 nM.
For the molecule `COc1ncc(-c2cnc(NCc3c(F)ccc4c3CCO4)n3cnnc23)c(C)n1` [Example 175, N-((5-fluoro-2,3-dihydrobenzofuran-4-yl)methyl)-8-(2-methoxy-4-methylpyrimidin-5-yl)-[1,2,4]triazolo[4,3-c]pyrimidin-5-amine], the IC50 on EED (1-441)-His protein came to 6.3 nM; in assay [1], 9.2 nM.
In the same order, the values of `Cc1ncncc1-c1cnc(NCc2c(F)ccc3c2CCO3)n2cnnc12` [Example 176, N-((5-fluoro-2,3-dihydrobenzofuran-4-yl)methyl)-8-(4-methylpyrimidin-5-yl)-[1,2,4]triazolo[4,3-c]pyrimidin-5-amine] are 5.9 nM and 8.3 nM.
Take `Cc1nccc(-c2cnc(NCc3c(F)ccc4c3CCO4)n3cnnc23)c1C` [Example 177, 8-(2,3-dimethylpyridin-4-yl)-N-((5-fluoro-2,3-dihydrobenzofuran-4-yl)methyl)-[1,2,4]triazolo[4,3-c]pyrimidin-5-amine]: the IC50 worked out at 3.8 nM at EED (1-441)-His protein and 4.4 nM in assay [1].
In the same order, the values of `Cc1cc(C#N)ccc1-c1cnc(NCc2c(F)ccc3c2CCO3)n2cnnc12` [Example 178, 4-(5-(((5-fluoro-2,3-dihydrobenzofuran-4-yl)methyl)amino)-[1,2,4]triazolo[4,3-c]pyrimidin-8-yl)-3-methylbenzonitrile] are 5.4 nM and 7 nM.
The matching figures for `Cc1nn(C2CC2)c(C)c1-c1cnc(NCc2c(F)ccc3c2CCO3)n2cnnc12` [Example 179, 8-(1-cyclopropyl-3,5-dimethyl-1H-pyrazol-4-yl)-N-((5-fluoro-2,3-dihydrobenzofuran-4-yl)methyl)-[1,2,4]triazolo[4,3-c]pyrimidin-5-amine]: 12.4 nM and 16.1 nM.
In the same order, the values of `Cc1c(-c2cnc(NCc3c(F)ccc4c3CCO4)n3cnnc23)ccnc1F` [Example 180, N-((5-fluoro-2,3-dihydrobenzofuran-4-yl)methyl)-8-(2-fluoro-3-methylpyridin-4-yl)-[1,2,4]triazolo[4,3-c]pyrimidin-5-amine] are 7.3 nM and 7.9 nM.
As for `Cc1c(-c2cnc(NCc3c(F)ccc4c3CCO4)n3cnnc23)ccnc1C(F)F` [Example 181, 8-(2-(difluoromethyl)-3-methylpyridin-4-yl)-N-((5-fluoro-2,3-dihydrobenzofuran-4-yl)methyl)-[1,2,4]triazolo[4,3-c]pyrimidin-5-amine], the figures for the IC50 (at EED (1-441)-His protein; in assay [1]) were 2.6 nM and 6 nM, respectively.
As to `Cc1c(-c2cnc(NCc3c(F)ccc4c3CCO4)n3cnnc23)ccnc1CF` [Example 182, N-((5-fluoro-2,3-dihydrobenzofuran-4-yl)methyl)-8-(2-(fluoromethyl)-3-methylpyridin-4-yl)-[1,2,4]triazolo[4,3-c]pyrimidin-5-amine], the IC50 was 3.1 nM on EED (1-441)-His protein and 5.6 nM in assay [1].
For the molecule `Cc1cnc(F)cc1-c1cnc(NCc2c(F)ccc3c2CCO3)n2cnnc12` [Example 183, N-((5-fluoro-2,3-dihydrobenzofuran-4-yl)methyl)-8-(2-fluoro-5-methylpyridin-4-yl)-[1,2,4]triazolo[4,3-c]pyrimidin-5-amine], the figures for the IC50 (on EED (1-441)-His protein; in assay [1]) were 4.8 nM and 8.1 nM, respectively.
Consider `Cc1cnc(C(F)(F)F)cc1-c1cnc(NCc2c(F)ccc3c2CCO3)n2cnnc12` [Example 184, N-((5-fluoro-2,3-dihydrobenzofuran-4-yl)methyl)-8-(5-methyl-2-(trifluoromethyl)pyridin-4-yl)-[1,2,4]triazolo[4,3-c]pyrimidin-5-amine], for which the IC50 is 5.4 nM at EED (1-441)-His protein and 13.2 nM in assay [1].
The matching figures for `Fc1ccc2c(c1CNc1ncc(-c3ccnc(C(F)(F)F)c3)c3nncn13)CCO2` [Example 185, N-((5-fluoro-2,3-dihydrobenzofuran-4-yl)methyl)-8-(2-(trifluoromethyl)pyridin-4-yl)-[1,2,4]triazolo[4,3-c]pyrimidin-5-amine]: 4.4 nM and 6.7 nM.
On to `Cc1nn(C[C@@H](C)O)c(C)c1-c1cnc(NCc2c(F)ccc3c2CCO3)n2cnnc12` [Example 186, (2R)-1-(4-(5-(((5-fluoro-2,3-dihydrobenzofuran-4-yl)methyl)amino)-[1,2,4]triazolo[4,3-c]pyrimidin-8-yl)-3,5-dimethyl-1H-pyrazol-1-yl)propan-2-ol], for which the IC50 on EED (1-441)-His protein turned out to be 3.5 nM; in assay [1], 6 nM.
In the case of `Cc1nn(C[C@H](C)O)c(C)c1-c1cnc(NCc2c(F)ccc3c2CCO3)n2cnnc12` [Example 187, (2S)-1-(4-(5-(((5-fluoro-2,3-dihydrobenzofuran-4-yl)methyl)amino)-[1,2,4]triazolo[4,3-c]pyrimidin-8-yl)-3,5-dimethyl-1H-pyrazol-1-yl)propan-2-ol], the IC50 on EED (1-441)-His protein was found to be 8.2 nM; in assay [1], 12.5 nM.
In the same order, the values of `Cc1c(-c2cnc(NCc3c(F)ccc4c3CCO4)n3cnnc23)cnn1C(C)C` [Example 188, N-((5-fluoro-2,3-dihydrobenzofuran-4-yl)methyl)-8-(1-isopropyl-5-methyl-1H-pyrazol-4-yl)-[1,2,4]triazolo[4,3-c]pyrimidin-5-amine] are 2.3 nM and 3.8 nM.
The matching figures for `Cc1c(-c2cnc(NCc3c(F)ccc4c3CCO4)n3cnnc23)cnn1CCO` [Example 189, 2-(4-(5-(((5-fluoro-2,3-dihydrobenzofuran-4-yl)methyl)amino)-[1,2,4]triazolo[4,3-c]pyrimidin-8-yl)-5-methyl-1H-pyrazol-1-yl)ethanol]: 4.2 nM and 8.7 nM.
Consider `Cc1nn(CCO)cc1-c1cnc(NCc2c(F)ccc3c2CCO3)n2cnnc12` [Example 190, 2-(4-(5-(((5-fluoro-2,3-dihydrobenzofuran-4-yl)methyl)amino)-[1,2,4]triazolo[4,3-c]pyrimidin-8-yl)-3-methyl-1H-pyrazol-1-yl)ethanol], for which the figures for the half-maximal inhibitory concentration (IC50) (on EED (1-441)-His protein; in assay [1]) were 4.5 nM and 17.1 nM, respectively.
For the molecule `Fc1ccc2c(c1CNc1ncc(-c3cncnc3C(F)F)c3nncn13)CCO2` [Example 191, 8-(4-(difluoromethyl)pyrimidin-5-yl)-N-((5-fluoro-2,3-dihydrobenzofuran-4-yl)methyl)-[1,2,4]triazolo[4,3-c]pyrimidin-5-amine], the IC50 turned out to be 3.8 nM at EED (1-441)-His protein and 13.1 nM in assay [1].
